Activity calls are given as the source filed them.
Columns and labels:
[1] = cells; type: functional
[2] = fluconazole-exposed Candida albicans growth modulators – fluorescence, retest, confirmation (AID 2467); type: functional, cell-based
[3] = NIH-3T3 fibroblast cytotoxicity, dose response, cytotoxicity control, cell-based, fluorescence, Alamar Blue, secondary assay (AID 2327); type: functional;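 also: NIH-3T3 mouse fibroblasts cultured with fluconazole at 8 µg/mL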
[4] = viability of uninfected HEp-2 cells – cell-based, HTS, cytotoxicity control for RSV inhibitor project, dose response (AID 2410); type: functional; conditions: human respiratory syncytial virus
[5] = non-specific 3'UTR reporter inhibition in Clone20-Shn3RL – cell-based, Renilla luciferase, cherry-picked, counter-screen for Shn3 inhibitor project, dose response (AID 624133); type: functional
[6] = target: FAD-linked sulfhydryl oxidase ALR (Homo sapiens, UniProt P55789); experiment: ALR-catalysed DTT oxidation blockers – biochemical, H2O2 detection, luminescence, cherry-pick, dose response (AID 493248)
Chain of FAD-linked sulfhydryl oxidase ALR (P55789 whole entry): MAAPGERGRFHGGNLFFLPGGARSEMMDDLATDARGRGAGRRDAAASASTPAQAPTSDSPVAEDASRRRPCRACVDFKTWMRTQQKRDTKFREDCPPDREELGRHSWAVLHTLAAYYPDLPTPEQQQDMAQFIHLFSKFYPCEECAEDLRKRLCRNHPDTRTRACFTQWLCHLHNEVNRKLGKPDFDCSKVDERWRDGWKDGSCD

[7] = target: Luciferin 4-monooxygenase (Photinus pyralis, UniProt P08659); experiment: inhibition of purified Photinus pyralis luciferase – biochemical, luminescence, dose response (AID 1891)
Chain of Luciferin 4-monooxygenase (P08659 whole entry): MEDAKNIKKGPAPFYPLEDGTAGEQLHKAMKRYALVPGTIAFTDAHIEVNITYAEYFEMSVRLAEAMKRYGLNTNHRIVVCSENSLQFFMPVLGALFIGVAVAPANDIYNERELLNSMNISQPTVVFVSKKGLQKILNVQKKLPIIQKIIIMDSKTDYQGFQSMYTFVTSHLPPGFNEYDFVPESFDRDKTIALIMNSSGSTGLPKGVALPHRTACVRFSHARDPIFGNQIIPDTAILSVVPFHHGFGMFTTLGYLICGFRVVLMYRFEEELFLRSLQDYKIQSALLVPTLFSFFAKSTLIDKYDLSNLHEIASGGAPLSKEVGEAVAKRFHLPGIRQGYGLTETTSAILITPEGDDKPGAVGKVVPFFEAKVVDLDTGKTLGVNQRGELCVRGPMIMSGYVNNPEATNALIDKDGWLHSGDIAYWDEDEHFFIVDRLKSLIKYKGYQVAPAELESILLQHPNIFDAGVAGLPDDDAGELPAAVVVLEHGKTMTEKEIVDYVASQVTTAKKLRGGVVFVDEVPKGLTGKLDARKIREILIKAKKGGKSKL

[8] = Luminescence Cell-Based Dose Confirmation HTS to Identify Inhibitors of Platelet Dense Granule Release. [Related pubchem assays: 1663 (Primary HTS), 1678 (Summary of Project)]; type: functional
[9] = target: T1, Heat shock factor protein 1 (Mus musculus, UniProt P38532); experiment: enhancement of HSF1-driven luciferase signal – cell-based, NIH3T3, luminescence, dose retest, confirmation (AID 435004); type: functional;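 also: stress induced by proteasome inhibitor MG132 added 30 min after compound; luciferase reporter driven by HSF1 response element in NIH3T3 cells; actives raise luminescence as potentiators of the MG132 stress response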
T1 sequence (P38532 whole entry): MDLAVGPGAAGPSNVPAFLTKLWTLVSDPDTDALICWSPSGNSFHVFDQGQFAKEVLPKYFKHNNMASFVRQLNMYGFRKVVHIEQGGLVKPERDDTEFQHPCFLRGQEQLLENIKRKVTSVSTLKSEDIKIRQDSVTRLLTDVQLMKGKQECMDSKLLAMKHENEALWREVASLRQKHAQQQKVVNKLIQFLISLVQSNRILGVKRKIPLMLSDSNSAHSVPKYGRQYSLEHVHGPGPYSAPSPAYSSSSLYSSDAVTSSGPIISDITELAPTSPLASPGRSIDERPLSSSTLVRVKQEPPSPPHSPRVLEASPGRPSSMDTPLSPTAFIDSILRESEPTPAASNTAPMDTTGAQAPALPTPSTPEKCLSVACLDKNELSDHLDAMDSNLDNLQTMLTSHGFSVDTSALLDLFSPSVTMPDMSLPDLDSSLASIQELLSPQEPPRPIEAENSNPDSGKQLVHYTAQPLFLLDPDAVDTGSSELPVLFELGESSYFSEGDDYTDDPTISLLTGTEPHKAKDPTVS

[10] = NIH3T3 cell viability loss – ATP luminescence, mouse fibroblasts, counter-screen, dose response (AID 2010); type: functional, cell-based;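 also: cells exposed to compound for about 90 hours before reading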
[11] = Trypanosoma cruzi growth suppression in host cells – NIH3T3 host cells, beta-gal luminescence, confirmation (AID 2044); type: functional, cell-based;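 also: intracellular parasites grown in NIH/3T3 mouse fibroblasts as host cells; luminescent beta-galactosidase reporter signal from transgenic T. cruzi replicating inside host cells; inhibitors lower the luminescence signal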
[12] = A549 cell cytotoxicity, dose response, cytotoxicity control, plate reader, cherry-pick, antagonist series (AID 743412); type: functional, cell-based
[13] = blockers of bursicon-stimulated LGR2 cAMP reporter – cell-based, HEK293, CRE-luciferase reporter, cherry pick, set 2, dose response (AID 743343); type: functional;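 also: transfected cells were stimulated with diluted bursicon conditioned medium after compound addition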
[14] = blockade of melanocortin 4 receptor signaling – cell-based, plate reader, cherry pick, counter-screen for LGR2 antagonist project, dose response (AID 743444); type: functional;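 also: transfected HEK 293 cells stimulated with alpha-MSH peptide; potency of inhibitors of the alpha-MSH evoked signal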
[15] = reduction of Shn3 3'UTR-driven luciferase in osteoblasts – cell-based, Clone20 osteoblasts, firefly luciferase, cherry-picked, dose response (AID 624132); type: functional;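 also: firefly luciferase luminescence from reporter carrying the Shn3 3'UTR in osteoblasts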
[16] = test system: BJ; experiment: cells; type: functional, cell-based; conditions: Homo sapiens
[17] = DRD fibroblast viability loss – cell-based, non-viral oncogenic, luminescence, dose response (AID 1934); type: functional; conditions: Homo sapiens
[18] = test system: BJ; experiment: BJ-TERT fibroblast viability loss – cell-based, RAS-independent, luminescence, dose response (AID 1933); type: functional; conditions: Homo sapiens
[19] = test system: BJ; experiment: BJ-TERT-LT-ST fibroblast viability loss – cell-based, RAS-independent, luminescence, dose response (AID 1935); type: functional; conditions: Homo sapiens;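 also: BJ fibroblasts immortalized with TERT plus LT and ST oncogenes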
[20] = microbe, parasite or virus in culture; type: functional; conditions: Mycobacterium tuberculosis
[21] = target: T2, Protein RecA (Mycobacterium tuberculosis, UniProt P9WHJ3); experiment: Fluorescence Cell-Free Homogeneous Dose Retest to Identify Inhibitors of RecA-Intein Splicing Activity. [Related pubchem assays (depositor defined):AID2097, AID2223, AID489010, AID492950]; type: functional
T2 sequence (P9WHJ3 whole entry): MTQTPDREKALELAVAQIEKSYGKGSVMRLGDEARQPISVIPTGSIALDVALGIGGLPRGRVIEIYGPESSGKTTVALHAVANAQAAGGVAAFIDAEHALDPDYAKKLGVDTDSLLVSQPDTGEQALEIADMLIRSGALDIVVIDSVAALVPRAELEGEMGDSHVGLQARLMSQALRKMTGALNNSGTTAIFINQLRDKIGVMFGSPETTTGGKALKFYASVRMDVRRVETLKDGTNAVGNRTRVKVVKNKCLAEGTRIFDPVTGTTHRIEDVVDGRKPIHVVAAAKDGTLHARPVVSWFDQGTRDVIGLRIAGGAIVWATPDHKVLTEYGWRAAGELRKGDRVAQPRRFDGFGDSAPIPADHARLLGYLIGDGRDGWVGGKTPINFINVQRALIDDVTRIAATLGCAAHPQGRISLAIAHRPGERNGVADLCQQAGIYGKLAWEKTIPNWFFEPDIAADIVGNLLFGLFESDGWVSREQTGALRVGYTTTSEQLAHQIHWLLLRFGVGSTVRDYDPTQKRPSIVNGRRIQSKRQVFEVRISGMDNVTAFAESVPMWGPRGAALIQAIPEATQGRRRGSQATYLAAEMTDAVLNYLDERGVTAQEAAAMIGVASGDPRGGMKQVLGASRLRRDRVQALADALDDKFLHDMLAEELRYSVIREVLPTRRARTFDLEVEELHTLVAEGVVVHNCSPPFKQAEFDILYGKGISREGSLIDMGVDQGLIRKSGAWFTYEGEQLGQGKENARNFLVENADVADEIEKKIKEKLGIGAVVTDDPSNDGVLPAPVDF

[22] = target: T3, Replicative DNA helicase DnaB (Mycobacterium tuberculosis, UniProt P9WMR3); experiment: DnaB intein splicing inhibitors, dose response, biochemical, cell-free fluorescence (AID 449749); type: functional
T3 sequence (P9WMR3 whole entry): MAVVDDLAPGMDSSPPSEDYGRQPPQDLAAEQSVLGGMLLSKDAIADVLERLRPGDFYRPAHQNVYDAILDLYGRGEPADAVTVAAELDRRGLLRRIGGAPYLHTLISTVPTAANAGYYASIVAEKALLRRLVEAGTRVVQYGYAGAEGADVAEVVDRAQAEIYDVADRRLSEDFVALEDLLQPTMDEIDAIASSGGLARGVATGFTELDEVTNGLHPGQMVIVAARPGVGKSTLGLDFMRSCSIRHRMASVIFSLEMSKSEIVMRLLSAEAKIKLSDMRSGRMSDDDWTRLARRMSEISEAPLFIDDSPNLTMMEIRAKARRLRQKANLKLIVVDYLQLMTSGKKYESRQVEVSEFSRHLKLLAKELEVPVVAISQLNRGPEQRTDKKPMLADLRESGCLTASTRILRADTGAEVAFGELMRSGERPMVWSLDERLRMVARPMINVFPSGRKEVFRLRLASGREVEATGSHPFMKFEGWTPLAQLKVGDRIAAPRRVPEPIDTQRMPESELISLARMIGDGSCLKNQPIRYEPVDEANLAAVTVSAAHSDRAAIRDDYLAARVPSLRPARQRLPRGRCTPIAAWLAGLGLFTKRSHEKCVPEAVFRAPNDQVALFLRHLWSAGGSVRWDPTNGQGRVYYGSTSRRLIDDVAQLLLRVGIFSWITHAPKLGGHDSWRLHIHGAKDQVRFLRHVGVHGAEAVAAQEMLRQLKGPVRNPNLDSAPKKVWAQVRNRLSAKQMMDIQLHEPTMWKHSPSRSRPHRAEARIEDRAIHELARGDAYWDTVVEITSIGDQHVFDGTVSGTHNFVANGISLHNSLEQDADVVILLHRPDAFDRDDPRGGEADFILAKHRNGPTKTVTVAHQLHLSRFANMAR

With `Cc1cccc(C)c1NC(=O)COC(=O)CCc1c[nH]c2ccccc12` the IC50 [1] was 9.65 µM (active).
In the case of `CCCSc1cc(N)cc([N+](=O)[O-])c1`, the EC50 [2] is reported as > 38 µM (not active) and the EC50 [3] is reported as > 160 µM (inconclusive).
For `CCOc1ccc2nc(NN=C3C(=O)CC(C)(C)CC3=O)sc2c1`, the EC50 [2] was 9.16 µM (active) and the EC50 [3] was > 160 µM (inactive).
With `O=C(c1ccccc1)C1CN(Cc2ccccc2)CCC1(O)c1ccccc1` (stereo not given) the IC50 [1] was 18.7 µM (active).
With `O=C(CCS(=O)(=O)c1ccccc1)Nc1nc2c(s1)CCCC2` the CC50 [4] was 18.5 µM (active) and the AC50 [5] was 25.2 µM (active).
With `O=C(O)c1[nH]c2ccccc2c1NS(=O)(=O)c1ccc(F)cc1` the AC50 [6] was 3.4 µM (active).
For `Cc1ccc(-n2c(S)nnc2-c2cnccn2)cc1`, the AC50 [6] was 6.42 µM (active).
In the case of `Nc1ccc(-c2nc3cc(N)ccc3o2)cc1`, the AC50 [6] is reported as 0.289 µM (active), the EC50 [7] is reported as > 112 µM (not active) and the EC50 [8] is reported as 29.6 µM (active).
For `C=CCn1c(S)nnc1-c1cc(-c2ccccc2)sc1N`, the AC50 [6] was < 0.005 µM (active) and the EC50 [9] was > 260 µM (inactive).
For `CCc1nnc(NC(=O)c2cc3ccccc3oc2=O)s1`, the IC50 [1] was 0.81 µM (active).
In the case of `CCCCN(CCCC)S(=O)(=O)c1ccc(C(=O)Nc2nnc(COC)o2)cc1`, the EC50 [2] is reported as 2.92 µM (active) and the EC50 [3] is reported as > 150 µM (inconclusive).
For `CCOC(=O)Cc1csc(NC(=O)c2ccc3ncsc3c2)n1`, the EC50 [2] was > 38 µM (not active) and the EC50 [3] was > 160 µM (inactive).
With `O=C(Nc1ccc(Br)cc1)c1cc([N+](=O)[O-])cc([N+](=O)[O-])c1` the EC50 [10] was > 60 µM (not active), the EC50 [11] was 0.19 µM (active) and the IC50 [1] was 11.4 µM (active).
For `CC(C)C(=O)NCCSc1c[nH]c2ccccc12`, the AC50 [6] was 3.12 µM (active).
With `O=C(Nc1ccc(Cl)cc1)Nc1ccccc1C(=O)O` the AC50 [12] was > 52 µM (inactive), the EC50 [7] was < 0.088 µM (active) and the AC50 [13] was 9.59 µM (active). The AC50 [14] was 6.99 µM (active) and the EC50 [8] was 5.21 µM (active).
With `Cc1ccc2nc(-c3ccc(NC(=O)COC(=O)c4ccco4)cc3)sc2c1` the CC50 [4] was 14.1 µM (active), the AC50 [13] was 2.95 µM (active) and the AC50 [14] was 3.55 µM (active).
In the case of `COC(=O)c1ccc(N2CCN(S(=O)(=O)c3ccc(C)cc3)CC2)c([N+](=O)[O-])c1`, the AC50 [5] is reported as 2.95 µM (active) and the AC50 [15] is reported as 3.88 µM (active).
For `COC(=O)CCn1c(C)cc(C(=O)COc2ccccc2C(N)=O)c1C`, the EC50 [16] was > 150 µM (not active), the CC50 [4] was 9.72 µM (active) and the EC50 [17] was > 150 µM (not active). The EC50 [18] was 58.1 µM (active), the EC50 [19] was > 150 µM (inconclusive) and the IC50 [1] was 19.8 µM (active).
In the case of `CCOc1ccc(OCCSc2ccc(S(=O)(=O)N3CCN(C)CC3)cn2)cc1`, the CC50 [20] is reported as > 40 µM (active) and the IC50 [1] is reported as 19.3 µM (active).
In the case of `CCOC(=O)c1cccc(NC2c3ccccc3C(=O)N2Cc2ccco2)c1` (stereo not given), the AC50 [5] is reported as 1.94 µM (active) and the AC50 [15] is reported as 4.26 µM (active).
For `Cc1oc2cc3oc(=O)c(CC(=O)N[C@@H](C)C(=O)NC(Cc4ccc(Cl)cc4)C(=O)O)c(C)c3cc2c1C` (stereo not given in full), the AC50 [6] was 94.3 µM (active).
In the case of `COC(=O)[C@@]12CCCCN1[C@H](c1ccc(SC3CCCCC3)c(OC)c1)[C@@H]1C(=O)N(C)C(=O)[C@@H]12`, the AC50 [5] is reported as 24.2 µM (active) and the AC50 [15] is reported as 21.4 µM (active).
For `Cc1ccc(NC2CCCN(C(=O)CCCN3CCCCC3=O)C2)cc1C` (stereo not given), the AC50 [6] was 8.32 µM (active).
With `Cc1cccc(N2CC(C(=O)Nc3ccccc3N3CCCC3)CC2=O)c1C` (stereo not given) the AC50 [6] was 1.93 µM (active).
In the case of `CC(=O)Nc1ccc(S(=O)(=O)N[C@@H](C)C(=O)N2CCN(c3ccccn3)CC2)cc1`, the AC50 [6] is reported as 1.37 µM (active).
With `CN(C)c1ncnc2c1C(c1ccccc1)C(C)(C)O2` (stereo not given) the AC50 [15] was > 70 µM (inactive).
In the case of `Cc1ccc(/C=N/NC(=O)c2ccc3ccccc3c2)s1`, the EC50 [16] is reported as 96.4 µM (inconclusive), the EC50 [17] is reported as 18 µM (inconclusive) and the EC50 [18] is reported as 4.71 µM (inconclusive). The EC50 [19] was 62.1 µM (active).
For `CC(C)(C)OC(=O)N/N=C\c1ccc(OC(=O)c2ccco2)cc1`, the EC50 [21] was 16.2 µM (active), the AC50 [22] was 34.5 µM (active) and the IC50 [1] was 39.5 µM (active).
In the case of `CN(C)c1ccc(C(=O)N/N=C/c2cc(Br)cc(Br)c2O)cc1`, the EC50 [2] is reported as > 38 µM (not active) and the EC50 [3] is reported as 14 µM (active).
For `O/N=C\c1ccc(-c2ccccc2)o1`, the AC50 [6] was 6.45 µM (active).
For `O=C(NCC1CCCO1)c1cc2c([nH]c3ccccc32)c(-c2ccc(F)cc2)n1` (stereo not given), the EC50 [16] was 23.9 µM (active), the EC50 [17] was 23.6 µM (active) and the EC50 [18] was 30.7 µM (active). The EC50 [19] was > 150 µM (not active).
